Experimental data reported in EP3928779A1 (Chugai Seiyaku Kabushiki Kaisha, priority 2014, dated 2016).

Tested on: rat small-intestinal brush border membrane vesicles
Test: Inhibitory effect on 33PO4 uptake into rat small-intestinal brush border membrane vesicles (rapid filtration method)
Type: biochemical
Conditions: 33PO4 uptake into rat small-intestinal BBMVs; test compound 1 µM; reacted for 60 seconds
Summary of the method: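 Uptake of ^33PO4 was measured by rapid filtration and liquid scintillation counting of filter-retained vesicles, after quenching with ice-cold 110 mM NaCl/1 mM KH2PO4/10 mM HEPES pH 7.5. Vesicles were brush border membranes from the upper small intestine of female Wistar rats aged 4–5 weeks.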

| SMILES | Rate of uptake inhibition (%) (1 µM) |
| --- | --- |
| COCCN1CCC[C@H]1COc1ccc(CN2C(=O)C(C(=O)Nc3ccc(C(F)(F)F)cc3-c3cc(C(F)(F)F)ncn3)=C(O)C3(CCC3)N2C)c(F)c1F [Example 404, 6-[[2,3-Difluoro-4-[[(2S)-1-(2-methoxyethyl)pyrrolidin-2-yl]methoxy]phenyl]methyl]-9-hydroxy-5-methyl-7-oxo-N-[4-(trifluoromethyl)-2-[6-(trifluoromethyl)pyrimidin-4-yl]phenyl]-5,6-diazaspiro[3.5]non-8-ene-8-carboxamide] | 43% |
| COCCN1CC[C@@H](Oc2ccc(CN3C(=O)C(C(=O)Nc4ccc(C(F)(F)F)cc4-c4cc(C(F)(F)F)ncn4)=C(O)C4(CCC4)N3C)c(F)c2F)C1 [Example 405, 6-[[2,3-Difluoro-4-[(3R)-1-(2-methoxyethyl)pyrrolidin-3-yl]oxyphenyl]methyl]-9-hydroxy-5-methyl-7-oxo-N-[4-(trifluoromethyl)-2-[6-(trifluoromethyl)pyrimidin-4-yl]phenyl]-5,6-diazaspiro[3.5]non-8-ene-8-carboxamide] | 30% |
| COCCN1CC(Oc2ccc(CN3C(=O)C(C(=O)Nc4ccc(C(F)(F)F)cc4-c4cc(C(F)(F)F)ncn4)=C(O)C4(CCC4)N3C)c(F)c2F)C1 [Example 406] | 27% |
| CN1N(Cc2ccc(OC(C)(C)CN3CCOCC3)c(F)c2F)C(=O)C(C(=O)Nc2ccc(C(F)(F)F)cc2-c2cc(C(F)(F)F)ncn2)=C(O)C12CCC2 [Example 407, 6-[[2,3-Difluoro-4-(2-methyl-1-morpholin-4-ylpropan-2-yl)oxyphenyl]methyl]-9-hydroxy-5-methyl-7-oxo-N-[4-(trifluoromethyl)-2-[6-(trifluoromethyl)pyrimidin-4-yl]phenyl]-5,6-diazaspiro[3.5]non-8-ene-8-carboxamide] | 30% |
| CC(CN1CCOCC1)Oc1ccc(CN2C(=O)C(C(=O)Nc3ccc(C(F)(F)F)cc3-c3cc(C(F)(F)F)ncn3)=C(O)C3(CCC3)N2C)c(F)c1F (stereo not shown) [Example 408] | 47% |
| CN1CCC(Oc2ccc(CN3C(=O)C(C(=O)Nc4ccc(C(F)(F)F)cc4-c4cc(C(F)(F)F)ncn4)=C(O)C4(CCC4)N3C)c(F)c2F)CC1 [Example 411] | 32% |
| CN(CCOc1ccc(CN2C(=O)C(C(=O)Nc3ccc(C(F)(F)F)cc3-c3cc(C(F)(F)F)ncn3)=C(O)C3(CCCC3)N2C)c(F)c1F)C1COC1 [Example 412, 7-(2,3-Difluoro-4-(2-(methyl(oxetan-3-yl)amino)ethoxy)benzyl)-10-hydroxy-6-methyl-8-oxo-N-(4-(trifluoromethyl)-2-(6-(trifluoromethyl)pyrimidin-4-yl)phenyl)-6,7-diazaspiro[4.5]dec-9-ene-9-carboxamide] | 52% |
| CN1N(Cc2ccc(OCC3CCCO3)c(F)c2F)C(=O)C(C(=O)Nc2ccc(C(F)(F)F)cc2-c2cc(C(F)(F)F)ncn2)=C(O)C12CCCC2 (stereo not shown) [Example 413] | 34% |
| CN(C)CC(C)(C)COc1ccc(CN2C(=O)C(C(=O)Nc3ccc(C(F)(F)F)cc3-c3cc(C(F)(F)F)ncn3)=C(O)C3(CCCC3)N2C)c(F)c1F [Example 414, 7-(4-(3-(Dimethylamino)-2,2-dimethylpropoxy)-2,3-difluorobenzyl)-10-hydroxy-6-methyl-8-oxo-N-(4-(trifluoromethyl)-2-(6-(trifluoromethyl)pyrimidin-4-yl)phenyl)-6,7-diazaspiro[4.5]dec-9-ene-9-carboxamide] | 27% |
| COCCN(C)CCNc1ccc(CN2C(=O)C(C(=O)Nc3ccc(C(F)(F)F)cc3-c3cc(C(F)(F)F)ncn3)=C(O)C3(CCCC3)N2C)c(F)c1F [Example 417, 7-(2,3-Difluoro-4-((2-((2-methoxyethyl)(methyl)amino)ethyl)amino)benzyl)-10-hydroxy-6-methyl-8-oxo-N-(4-(trifluoromethyl)-2-(6-(trifluoromethyl)pyrimidin-4-yl)phenyl)-6,7-diazaspiro[4.5]dec-9-ene-9-carboxamide] | 48% |
| CN(C[C@H](O)[C@@H](O)[C@H](O)[C@H](O)CO)C(=O)CCCOc1ccc(CN2C(=O)C(C(=O)Nc3ccc(C(F)(F)F)cc3-c3cc(C(F)(F)F)ncn3)=C(O)C3(CCCC3)N2C)c(F)c1F [Example 418, 7-[[2,3-Difluoro-4-[4-[methyl-[(2S,3R,4R,5R)-2,3,4,5,6-pentahydroxyhexyl]amino]-4-oxobutoxy]phenyl]methyl]-10-hydroxy-6-methyl-8-oxo-N-[4-(trifluoromethyl)-2-[6-(trifluoromethyl)pyrimidin-4-yl]phenyl]-6,7-diazaspiro[4.5]dec-9-ene-9-carboxamide] | 29% |
| CN1N(Cc2ccc(OCCOCCNCC(O)CO)c(F)c2F)C(=O)C(C(=O)Nc2ccc(C(F)(F)F)cc2-c2cc(C(F)(F)F)ncn2)=C(O)C12CCCC2 (stereo not shown) [Example 419, 7-[[4-[2-[2-(2,3-Dihydroxypropylamino)ethoxy]ethoxy]-2,3-difluorophenyl]methyl]-10-hydroxy-6-methyl-8-oxo-N-[4-(trifluoromethyl)-2-[6-(trifluoromethyl)pyrimidin-4-yl]phenyl]-6,7-diazaspiro[4.5]dec-9-ene-9-carboxamide] | 22% |
| CN(CCOCCOc1ccc(CN2C(=O)C(C(=O)Nc3ccc(C(F)(F)F)cc3-c3cc(C(F)(F)F)ncn3)=C(O)C3(CCCC3)N2C)c(F)c1F)C[C@H](O)[C@@H](O)[C@H](O)[C@H](O)CO [Example 420, 7-[[2,3-Difluoro-4-[2-[2-[methyl-[(2S,3R,4R,5R)-2,3,4,5,6-pentahydroxyhexyl]amino]ethoxy]ethoxy]phenyl]methyl]-10-hydroxy-6-methyl-8-oxo-N-[4-(trifluoromethyl)-2-[6-(trifluoromethyl)pyrimidin-4-yl]phenyl]-6,7-diazaspiro[4.5]dec-9-ene-9-carboxamide] | 19% |
| CN(CCOCCOCCOCCOCCOc1ccc(CN2C(=O)C(C(=O)Nc3ccc(C(F)(F)F)cc3-c3cc(C(F)(F)F)ncn3)=C(O)C3(CCCC3)N2C)c(F)c1F)C[C@@H](O)[C@H](O)[C@@H](O)[C@@H](O)CO [Example 421, 7-[[2,3-Difluoro-4-[2-[2-[2-[2-[2-[methyl-[(2R,3S,4S,5S)-2,3,4,5,6-pentahydroxyhexyl]amino]ethoxy]ethoxy]ethoxy]ethoxy]ethoxy]phenyl]methyl]-10-hydroxy-6-methyl-8-oxo-N-[4-(trifluoromethyl)-2-[6-(trifluoromethyl)pyrimidin-4-yl]phenyl]-6,7-diazaspiro[4.5]dec-9-ene-9-carboxamide] | 24% |
| CN(C[C@H](O)[C@@H](O)[C@H](O)[C@H](O)CO)C(=O)CCOCCOCCOc1ccc(CN2C(=O)C(C(=O)Nc3ccc(C(F)(F)F)cc3-c3cc(C(F)(F)F)ncn3)=C(O)C3(CCCC3)N2C)c(F)c1F [Example 422] | 29% |
| CN(C[C@H](O)[C@@H](O)[C@H](O)[C@H](O)CO)C(=O)CCOCCOCCOCCOc1ccc(CN2C(=O)C(C(=O)Nc3ccc(C(F)(F)F)cc3-c3cc(C(F)(F)F)ncn3)=C(O)C3(CCCC3)N2C)c(F)c1F [Example 423] | 5% |
